≈ marks a conversion by molar mass, not a printed value.
Tested on: Peripheral blood mononuclear cells (PBMCs)
Test: PBMC survival (viable cell count, trypan blue exclusion)
Type: cell-based, human
Conditions: NAIM alone, compared to control conditions
Method: Peripheral blood mononuclear cells (PBMCs) from healthy donors were isolated by density centrifugation (Lymphoprep; Nycomed Pharma, AS Diagnostics, Oslo, Norway). For the “non-stimulated” conditions (NS) the cells were cultivated at a density of 1,750,000 cells per ml in RPMI-1640 supplemented with 2 mM L-glutamine, 15% FCS and 0.1% NaHCO3 for 3 days. […] At day 0 of the experiment, the NS and activated cells (PHA-stimulated blasts) were washed with PBS and were pelleted by centrifugation. […] The number of viable cells was counted based on the trypan blue exclusion method. The evolution of the number of cells was followed over a period of approximately 2 weeks.

| SMILES | PBMC cell viability, NAIM as such |
| --- | --- |
| Cc1nc(SC(O)C(O)C(O)C(O)C(O)CO)n(Nc2cccc3ccccc23)c1-c1ccccc1 (stereo not shown) [HER/NR953] | did not affect the cell viability |

Molecular target: T1, GSK-3β (Homo sapiens, UniProt P49841)
T1 construct: purchased Upstate Biotechnology
T1 sequence (P49841 whole entry): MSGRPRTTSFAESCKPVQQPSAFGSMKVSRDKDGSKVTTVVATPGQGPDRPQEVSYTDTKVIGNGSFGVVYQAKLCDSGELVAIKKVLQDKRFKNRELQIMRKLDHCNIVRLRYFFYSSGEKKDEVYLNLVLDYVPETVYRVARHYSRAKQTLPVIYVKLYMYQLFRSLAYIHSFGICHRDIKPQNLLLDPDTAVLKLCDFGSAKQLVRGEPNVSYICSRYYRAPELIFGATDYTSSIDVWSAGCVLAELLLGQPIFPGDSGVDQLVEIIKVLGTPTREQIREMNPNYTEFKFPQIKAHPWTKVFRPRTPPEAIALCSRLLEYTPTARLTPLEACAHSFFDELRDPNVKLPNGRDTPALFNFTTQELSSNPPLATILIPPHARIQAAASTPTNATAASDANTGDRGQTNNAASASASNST
Test: Radiometric kinase activity assay
Type: biochemical
Conditions: same experimental set-up as Table 1
Method: (§1) GSK-3 were assayed for their ability to phosphorylate the appropriate peptide/protein substrate in the presence of 5 μg/ml NR-818 and 10 μM ATP. Using the direct radiometric approach, kinase activities were determined and expressed as % activity compared to the untreated control (Upstate Biotechnology, Lake Placid, N.Y.). Activities are given as the mean of duplicate determinations relative to control incubations in which the inhibitor was substituted with DMSO. In the following table 1 providing results for NR818, the following abbreviations are used: • CDK, cyclin-dependent kinase; • CK, casein kinase; • eEF-2K, eukaryotic elongation factor-2 kinase; • JNK, c-Jun N-terminal kinase; • MAPK, mitogen-activated protein kinase; • PKC, protein kinase C; and • PI 3-kinase, phosphatidylinositol 3-kinase.
(§2) By using this experimental set-up, the inhibiting activity of NR953 on GSK-3 is also tested.

| SMILES | IC50 on GSK-3β |
| --- | --- |
| Cc1nc(SC(O)C(O)C(O)C(O)C(O)CO)n(Nc2cccc3ccccc23)c1-c1ccccc1 (stereo not shown) [HER/NR953] | low micro-molar concentrations |

Molecular target: T2, GSK-3α (Homo sapiens, UniProt P49840)
T2 construct: purchased Upstate Biotechnology
T2 sequence (P49840 whole entry): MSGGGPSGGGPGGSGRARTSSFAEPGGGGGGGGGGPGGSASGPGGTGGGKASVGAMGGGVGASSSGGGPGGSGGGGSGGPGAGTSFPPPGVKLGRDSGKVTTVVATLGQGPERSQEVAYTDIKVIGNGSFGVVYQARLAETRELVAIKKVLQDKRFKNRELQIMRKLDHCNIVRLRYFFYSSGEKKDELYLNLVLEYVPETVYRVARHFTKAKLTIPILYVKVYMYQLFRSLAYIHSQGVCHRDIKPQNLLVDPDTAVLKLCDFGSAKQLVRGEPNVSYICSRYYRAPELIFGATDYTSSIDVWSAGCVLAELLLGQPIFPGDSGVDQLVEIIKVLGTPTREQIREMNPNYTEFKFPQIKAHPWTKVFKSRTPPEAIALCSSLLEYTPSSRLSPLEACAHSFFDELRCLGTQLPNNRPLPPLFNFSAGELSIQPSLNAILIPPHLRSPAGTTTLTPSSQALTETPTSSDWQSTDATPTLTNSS
Test: Radiometric kinase activity assay
Type: biochemical
Conditions: same experimental set-up as Table 1
Method: as §1, §2

| SMILES | IC50 on GSK-3α |
| --- | --- |
| Cc1nc(SC(O)C(O)C(O)C(O)C(O)CO)n(Nc2cccc3ccccc23)c1-c1ccccc1 (stereo not shown) [HER/NR953] | low micro-molar concentrations |

Tested on: M17-TAU P301L cells
Test: TAU cytotoxicity (LDH leakage) in retinoic acid incubated M17-TAU P301L cells
Type: cell-based, human
Conditions: Homo sapiens, 168 h, reduction of LDH activity of retinoic acid incubated M17-TAU P301L cells, 7 days; read-out: IC50
Excerpt: An TAU expression plasmid was constructed by sub-cloning the cDNA of human TAU-P301L (encoding for TAU with proline 301 substituted by a leucine residue) into mammalian expression vector pcDNA3.1 resulting in plasmid pcDNA3.1-TAU P301L. Plasmids pcDNA3.1 and pcDNA3.1-TAU P301L were transfected to human neuroblastoma cells ([…]; ATCC No. CRL-2267) and independent clonal lines with the plasmids stably integrated into the genome were selected. […] Expression of the TAU P301L genes in the cell lines was confirmed by Western analysis.
In degenerated or dead cells, lactate dehydrogenase (LDH) is leaked out of the cells into the extracellular environment due to a loss of plasma-membrane integrity. This principle was used to determine cytotoxicity by quantifying the level of leaked LDH into the growth medium.
The detailed method for determining TAU cytotoxicity was as follows: From appropriate precultures of M17-3.1 and M17-TAU(P301L) cells were seeded at 2500 cells/cm2 in Optimem Reduced Serum without phenol red (Gibco, Cat. 31985-047) supplemented with 1% fetal calf serum, 1 mM sodium pyruvate, 1× non-essential amino acids, 500 μg/ml G418 0.5× antibiotic/antimycotic. After 3 hours of incubation at 37° C./5% CO2 1 volume of Optimem Reduced Serum (same as described above; except without fetal calf serum) supplemented with 2.5 μM retinoic acid (RA) was added. The cells were further incubated for 7 days. Subsequently, LDH activity was determined using Promega Cytotox 96 Non-Radioactive cytotoxicity assay, (Cat. G1780) according the supplier's instructions.
The M17-TAU P301L cell line made it possible to assess the ability of the compounds of this invention to counteract TAU cytotoxicity. […] Potency of the relevant compounds was determined by testing them at different concentrations ranging from non-effective (thus at a relatively low concentration) to an effective concentration for their ability to reduce LDH activity of retinoic acid incubated M17-TAU P301L cells.

| SMILES | IC50 [µg/mL] |
| --- | --- |
| Cc1cccc(Nn2cnc(C)c2-c2cccc(C(N)=O)c2)c1 [HER/NR809] | 0.33 (≈ 1.08 µM) |
| CCc1[nH]c(=S)n(Nc2cccc(Cl)c2)c1-c1ccccc1 [HER/NR789] | 0.184 (≈ 0.558 µM) |
| Cc1[nH]c(=S)n(Nc2ccccc2)c1-c1ccccc1 [HER/NR772] | 0.568 (≈ 2.02 µM) |
| Cc1[nH]c(=S)n(Nc2cc(Cl)ccc2Cl)c1-c1ccccc1 [HER/NR769] | 0.434 (≈ 1.24 µM) |
| Cc1[nH]c(=S)n(Nc2cccc(Cl)c2)c1-c1cccc(C(=O)O)c1 [HER/NR810] | 1 (≈ 2.79 µM) |
| Cc1ncn(Nc2cccc(Cl)c2)c1-c1cccc(C(=O)O)c1 [HER/NR815] | 0.805 (≈ 2.46 µM) |
| Cc1ncn(Nc2cccc(Cl)c2)c1-c1ccccc1 [HER/NR746] | 0.081 (≈ 0.285 µM) |
| Cc1cccc(Nn2c(-c3ccccc3)c(C(C)C)[nH]c2=S)c1 [HER/NR787] | 0.4 (≈ 1.24 µM) |
| COc1cccc(Nn2cnc(C)c2-c2ccccc2)c1 [HER/NR802] | 1.34 (≈ 4.79 µM) |
| Cc1[nH]c(=S)n(Nc2cccc(Cl)c2)c1-c1cccc(C#N)c1 [HER/NR803] | 0.086 (≈ 0.252 µM) |
| Cc1nc(SC(O)C(O)C(O)C(O)C(O)CO)n(Nc2cccc3ccccc23)c1-c1ccccc1 (stereo not shown) [HER/NR953] | 0.052 (≈ 0.102 µM) |
| Cc1cccc(Nn2cnc(C)c2-c2ccccc2)c1 [HER/NR790] | 0.059 (≈ 0.224 µM) |
| Cc1[nH]c(=S)n(Nc2cccc(Cl)c2)c1-c1ccc(Br)cc1 [HER/NR760] | 0.12 (≈ 0.304 µM) |
| Cc1[nH]c(=S)n(Nc2cccc(Cl)c2)c1-c1cccc(C(N)=O)c1 [HER/NR813] | 0.18 (≈ 0.502 µM) |
| Cc1ccc(Nn2c(-c3ccccc3)c(C)[nH]c2=S)cc1C [HER/NR767] | 0.146 (≈ 0.472 µM) |
| CCc1ccc(Nn2c(-c3ccccc3)c(C)[nH]c2=S)cc1 [HER/NR861] | 0.106 (≈ 0.343 µM) |
| CSc1nc(C)c(-c2ccccc2)n1Nc1cccc(Cl)c1 [HER/NR747] | 0.256 (≈ 0.776 µM) |
| Cc1[nH]c(=S)n(Nc2ccccc2Cl)c1-c1ccccc1 [HER/NR723] | 0.024 (≈ 0.076 µM) |
| Cc1cccc(Nn2cnc(C)c2-c2cccc(C#N)c2)c1 [HER/NR806] | 0.141 (≈ 0.489 µM) |
| Cc1[nH]c(=S)n(Nc2cccc(F)c2)c1-c1ccccc1 [HER/NR770] | 1.46 (≈ 4.88 µM) |
| COc1cccc(Nn2c(-c3ccccc3)c(C)[nH]c2=S)c1 [HER/NR801] | 1.35 (≈ 4.34 µM) |
| CSc1ccc(Nn2c(-c3ccccc3)c(C)[nH]c2=S)cc1 [HER/NR862] | 0.027 (≈ 0.0824 µM) |
| Cc1cc(C)cc(Nn2cnc(C)c2-c2ccccc2)c1 [HER/NR808] | 0.023 (≈ 0.0829 µM) |
| Cc1[nH]c(=S)n(Nc2cccc3ccccc23)c1-c1cccc(Br)c1 [HER/NR914] | 0.045 (≈ 0.11 µM) |
| Cc1[nH]c(=S)n(Nc2cccc(Cl)c2)c1-c1ccc(Cl)cc1Cl [HER/NR766] | 0.192 (≈ 0.499 µM) |
| CCc1[nH]c(=S)n(Nc2cccc(C)c2)c1-c1ccccc1 [HER/NR788] | 0.341 (≈ 1.1 µM) |
| Cc1[nH]c(=S)n(Nc2cccc(Cl)c2)c1-c1cccc(Br)c1 [HER/NR759] | 0.174 (≈ 0.441 µM) |

| SMILES | IC50 [µg/mL] |
| --- | --- |
| Cc1[nH]c(=S)n(Nc2ccc(Cl)cc2)c1-c1ccccc1 [HER/NR725] | 0.176 (≈ 0.557 µM) |
| CCc1ncn(Nc2cccc(C)c2)c1-c1ccccc1 [HER/NR791] | 0.046 (≈ 0.166 µM) |
| Cc1cccc(Nn2c(-c3cccc(C#N)c3)c(C)[nH]c2=S)c1 [HER/NR804] | 0.154 (≈ 0.481 µM) |
| Cc1[nH]c(=S)n(Nc2cccc(Br)c2)c1-c1ccccc1 [HER/NR768] | 0.44 (≈ 1.22 µM) |
| Cc1c(-c2ccccc2)n(N(C)c2ccccc2)c(=S)n1C [HER/NR863] | 3.85 (≈ 12.4 µM) |
| Cc1ncn(Nc2cccc(Cl)c2)c1-c1cccc(C#N)c1 [HER/NR805] | 0.09 (≈ 0.291 µM) |
| Cc1cccc(Nn2c(-c3ccccc3)c(C)[nH]c2=S)c1 [HER/NR775] | 0.321 (≈ 1.09 µM) |
| Cc1[nH]c(=S)n(Nc2ccc(F)cc2)c1-c1ccccc1 [HER/NR773] | 0.426 (≈ 1.42 µM) |
| Cc1[nH]c(=S)n(Nc2cccc(Cl)c2)c1-c1cccc(Cl)c1 [HER/NR761] | 0.11 (≈ 0.314 µM) |
| Cc1[nH]c(=S)n(N(C)c2ccccc2)c1-c1ccccc1 [HER/NR866] | 0.195 (≈ 0.66 µM) |
| Cc1[nH]c(=S)n(Nc2cccc([N+](=O)[O-])c2)c1-c1ccccc1 [HER/NR774] | 2.13 (≈ 6.53 µM) |
| COC(=O)c1cccc(-c2c(C)[nH]c(=S)n2Nc2cccc(Cl)c2)c1 [HER/NR812] | 0.328 (≈ 0.877 µM) |
| Cc1ncn(Nc2ccccc2)c1-c1ccccc1 [HER/NR776] | 0.455 (≈ 1.82 µM) |
| Cc1[nH]c(=S)n(Nc2cccc(Cl)c2)c1-c1ccccc1 [HER/NR724] | 0.34 (≈ 1.08 µM) |
| Cc1ncn(Nc2ccc(F)cc2)c1-c1ccccc1 [HER/NR786] | 0.191 (≈ 0.715 µM) |
| Cc1ccc(Nn2c(-c3ccccc3)c(C)[nH]c2=S)cc1Cl [HER/NR771] | 0.293 (≈ 0.888 µM) |
| Cc1cc(C)cc(Nn2c(-c3ccccc3)c(C)[nH]c2=S)c1 [HER/NR798] | 0.496 (≈ 1.6 µM) |
| Cc1ncn(Nc2cccc(Cl)c2)c1-c1cccc(Cl)c1 [HER/NR777] | 0.107 (≈ 0.336 µM) |
| COC(=O)c1cccc(-c2c(C)ncn2Nc2cccc(Cl)c2)c1 [HER/NR814] | 0.172 (≈ 0.503 µM) |
| Cc1ncn(Nc2cccc(Cl)c2)c1-c1ccc(Br)cc1 [HER/NR865] | 0.071 (≈ 0.196 µM) |
| Cc1[nH]c(=S)n(Nc2cccc(Cl)c2)c1-c1ccc(Cl)cc1 [HER/NR762] | 0.061 (≈ 0.174 µM) |
| Cc1cccc(Nn2c(SCc3ccccc3)nc(C)c2-c2ccccc2)c1 [HER/NR748] | 0.325 (≈ 0.843 µM) |
| COc1ccc(-c2c(C)[nH]c(=S)n2Nc2cccc(Cl)c2)cc1 [HER/NR763] | 0.456 (≈ 1.32 µM) |
| Cc1ccc(Nn2cnc(C)c2-c2ccccc2)cc1Cl [HER/NR864] | 0.057 (≈ 0.191 µM) |
| Cc1[nH]c(=S)n(Nc2cccc3ccccc23)c1-c1cccc(Cl)c1 [HER/NR915] | 0.037 (≈ 0.101 µM) |
| Cc1cccc(Nn2c(-c3cccc(C(=O)O)c3)c(C)[nH]c2=S)c1 [HER/NR811] | 1.9 (≈ 5.6 µM) |

Same assay, conditions: reduction of LDH activity of retinoic acid incubated M17-TAU P301L cells, 7 days

| SMILES | IC50 [µg/mL] |
| --- | --- |
| Cc1ncn(Nc2cccc(Cl)c2)c1-c1cccc(Br)c1 [HER/LI412 = NR779GLUCOSE] | 0.216 (≈ 0.596 µM) |
| Cc1ncn(Nc2cccc(Cl)c2)c1-c1cccc(Br)c1 [HER/NR779] | 0.022 (≈ 0.0607 µM) |
